# Reference: patent US9216978B2, “Ring-fused pyrimidines and triazines and use thereof for the treatment and/or prophylaxis of cardiovascular diseases” (BAYER INTELLECTUAL PROPERTY GMBH, priority 2010, dated 2015)
# Key:
# aorta = assay: Vessel-relaxing action in vitro (phenylephrine-contracted aorta rings); settings: Oryctolagus cuniculus; rabbit aorta rings, phenylephrine contraction; concentration reducing control contraction by 50%
# Description: B-1. Vessel-Relaxing Action In Vitro
# Rabbits are stunned with a blow on the back of the neck and exsanguinated. The aorta is removed, freed from adhering tissue, separated into rings with a width of 1.5 mm, and placed individually, with preloading, in 5-ml organ baths with carbogen-gassed Krebs-Henseleit solution at 37° C. with the following composition (mM in each case): sodium chloride: 119; potassium chloride: 4.8; calcium chloride dihydrate: 1; magnesium sulphate heptahydrate: 1.4; potassium dihydrogen phosphate: 1.2; sodium hydrogen carbonate: 25; glucose: 10. The contraction force is recorded with Statham UC2 cells, amplified and digitized via an A/D converter (DAS-1802 HC, Keithley Instruments Munich) and recorded in parallel on a continuous-line recorder. To produce contraction, phenylephrine is added to the bath cumulatively in increasing concentration. After several control cycles, the test substance is added in increasing dosage in each subsequent pass and the level of contraction is compared with the level of contraction reached in the immediately preceding pass. This is used for calculating the concentration that is required to reduce the level of the control value by 50% (IC50 value). The standard application volume is 5 μl, and the proportion of DMSO in the bath solution corresponds to 0.1%.
# [1] = molecular target: T1, recombinant guanylate cyclase reporter cell line (Rattus norvegicus, UniProt P19686+P20595); assay: Action on recombinant guanylate cyclase reporter cell line; type: cell-based
# T1 construct: expressed in transfected cells
# T1 sequence (P20595 1-619): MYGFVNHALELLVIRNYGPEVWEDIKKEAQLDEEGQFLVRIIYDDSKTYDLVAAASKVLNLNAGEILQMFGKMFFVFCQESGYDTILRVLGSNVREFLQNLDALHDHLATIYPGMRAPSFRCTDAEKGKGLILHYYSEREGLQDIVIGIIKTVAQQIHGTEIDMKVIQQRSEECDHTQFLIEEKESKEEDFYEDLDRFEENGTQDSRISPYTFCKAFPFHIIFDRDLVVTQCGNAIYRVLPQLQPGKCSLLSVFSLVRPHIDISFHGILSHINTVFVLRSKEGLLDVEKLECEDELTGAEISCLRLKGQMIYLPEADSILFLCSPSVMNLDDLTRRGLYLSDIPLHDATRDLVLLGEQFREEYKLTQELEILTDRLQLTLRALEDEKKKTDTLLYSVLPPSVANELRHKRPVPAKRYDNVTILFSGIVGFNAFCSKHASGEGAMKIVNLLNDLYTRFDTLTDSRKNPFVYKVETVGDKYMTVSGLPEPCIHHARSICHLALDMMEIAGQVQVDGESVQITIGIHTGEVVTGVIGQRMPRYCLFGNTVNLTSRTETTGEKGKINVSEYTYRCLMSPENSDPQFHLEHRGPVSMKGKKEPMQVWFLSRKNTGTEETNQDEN
# T1 sequence (P19686 1-690): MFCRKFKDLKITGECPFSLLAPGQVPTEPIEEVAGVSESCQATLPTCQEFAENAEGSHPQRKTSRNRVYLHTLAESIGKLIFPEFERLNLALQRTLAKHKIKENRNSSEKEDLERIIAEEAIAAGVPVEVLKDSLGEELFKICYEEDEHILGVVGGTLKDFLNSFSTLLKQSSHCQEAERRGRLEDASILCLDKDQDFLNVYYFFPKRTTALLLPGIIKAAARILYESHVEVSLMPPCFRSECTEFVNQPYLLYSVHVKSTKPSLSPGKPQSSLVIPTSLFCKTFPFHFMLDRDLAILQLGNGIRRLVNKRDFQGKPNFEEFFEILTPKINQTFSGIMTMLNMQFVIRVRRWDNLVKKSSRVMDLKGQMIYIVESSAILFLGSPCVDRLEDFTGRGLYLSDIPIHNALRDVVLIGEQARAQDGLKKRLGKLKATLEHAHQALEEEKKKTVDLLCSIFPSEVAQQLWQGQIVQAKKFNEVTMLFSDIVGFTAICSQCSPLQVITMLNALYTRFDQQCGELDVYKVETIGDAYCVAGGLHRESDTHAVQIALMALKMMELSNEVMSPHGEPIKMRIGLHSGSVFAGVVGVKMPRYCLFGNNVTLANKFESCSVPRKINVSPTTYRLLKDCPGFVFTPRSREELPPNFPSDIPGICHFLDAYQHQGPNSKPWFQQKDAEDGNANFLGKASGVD
# Description: B-2. Action on Recombinant Guanylate Cyclase Reporter Cell Line
# The cellular action of the compounds according to the invention is determined on a recombinant guanylate cyclase reporter cell line, as described in F. Wunder et al., Anal. Biochem. 339, 104-112 (2005).
Structure (SMILES),IC50 (aorta),MEC (minimal effective concentration) [1]
"CC1(C)C(=O)Nc2nc(-c3nn(Cc4ccccc4F)c4ncc(F)cc34)ncc21 [Example 2, 2-[5-Fluoro-1-(2-fluorobenzyl)-1H-pyrazolo[3,4-b]pyridin-3-yl]-5,5-dimethyl-5,7-dihydro-6H-pyrrolo[2,3-d]pyrimidin-6-one]",12 nM,0.01 µM
"O=C1Nc2nc(-c3nn(Cc4ccccc4F)c4ncccc34)ncc2C12CCOC2 (stereo not shown) [Example 3, 2′-[1-(2-Fluorobenzyl)-1H-pyrazolo[3,4-b]pyridin-3-yl]-4,5-dihydrospiro[furan-3,5′-pyrrolo[2,3-d]pyrimidin]-6′(7′H)-one]",–,0.03 µM
"O=C1Cc2cnc(-c3nn(Cc4ccccc4F)c4ncccc34)nc2N1 [Example 4, 2-[1-(2-Fluorobenzyl)-1H-pyrazolo[3,4-b]pyridin-3-yl]-5,7-dihydro-6H-pyrrolo[2,3-d]pyrimidin-6-one]",–,0.03 µM
"O=C1Nc2nc(-c3nn(Cc4ccccc4F)c4ncccc34)ncc2C12CC2 [Example 5, 2′-[1-(2-Fluorobenzyl)-1H-pyrazolo[3,4-b]pyridin-3-yl]spiro[cyclopropane-1,5′-pyrrolo[2,3-d]pyrimidin]-6′(7′H)-one]",–,0.03 µM
"O=C1Cc2nnc(-c3nn(Cc4ccccc4F)c4ncccc34)nc2N1 [Example 6, 3-[1-(2-Fluorobenzyl)-1H-pyrazolo[3,4-b]pyridin-3-yl]-5,7-dihydro-6H-pyrrolo[2,3-e][1,2,4]-triazin-6-one]",–,0.03 µM
"CC1(C)C(=O)Nc2nc(-c3nn(Cc4ccccc4F)c4ncccc34)nc(C(F)F)c21 [Example 7, 4-(Difluoromethyl)-2-[1-(2-fluorobenzyl)-1H-pyrazolo[3,4-b]pyridin-3-yl]-5,5-dimethyl-5,7-dihydro-6H-pyrrolo[2,3-d]pyrimidin-6-one]",45 nM,0.03 µM
"O=C1Nc2nc(-c3nn(Cc4ccc(F)cc4F)c4ncccc34)ncc2C12CC2 [Example 8, 2′-[1-(2,4-Difluorobenzyl)-1H-pyrazolo[3,4-b]pyridin-3-yl]spiro[cyclopropane-1,5′-pyrrolo[2,3-d]pyrimidin]-6′(7′H)-one]",13 nM,0.03 µM
"O=C1Nc2nc(-c3nn(Cc4cccc(F)c4F)c4ncccc34)ncc2C12CC2 [Example 10, 2′-[1-(2,3-Difluorobenzyl)-1H-pyrazolo[3,4-b]pyridin-3-yl]spiro[cyclopropane-1,5′-pyrrolo[2,3-d]pyrimidin]-6′(7′H)-one]",6 nM,0.03 µM
"CC1(C)C(=O)Nc2nc(-c3nn(Cc4cccc(F)c4F)c4ncccc34)ncc21 [Example 11, 2-[1-(2,3-Difluorobenzyl)-1H-pyrazolo[3,4-b]pyridin-3-yl]-5,5-dimethyl-5,7-dihydro-6H-pyrrolo[2,3-d]pyrimidin-6-one]",4 nM,0.03 µM
"CC1(C)C(=O)Nc2nc(-c3nn(Cc4ccccc4F)c4ncccc34)nc(C3CC3)c21 [Example 12, 4-Cyclopropyl-2-[1-(2-fluorobenzyl)-1H-pyrazolo[3,4-b]pyridin-3-yl]-5,5-dimethyl-5,7-dihydro-6H-pyrrolo[2,3-d]pyrimidin-6-one]",–,0.1 µM
"CC1(C)C(=O)Nc2nc(-c3nn(Cc4ccc(F)cc4F)c4ncccc34)ncc21 [Example 13, 2-[1-(2,4-Difluorobenzyl)-1H-pyrazolo[3,4-b]pyridin-3-yl]-5,5-dimethyl-5,7-dihydro-6H-pyrrolo[2,3-d]pyrimidin-6-one]",–,0.1 µM
"CC1CC(=O)Nc2nc(-c3nn(Cc4ccccc4F)c4ncccc34)ncc21 (stereo not shown) [Example 14, 2-[1-(2-Fluorobenzyl)-1H-pyrazolo[3,4-b]pyridin-3-yl]-5-methyl-5,8-dihydropyrido[2,3-d]-pyrimidin-7(6H)-one]",65 nM,0.1 µM
"O=C1CC(C(F)(F)F)c2cnc(-c3nn(Cc4ccccc4F)c4ncccc34)nc2N1 (stereo not shown) [Example 15, 2-[1-(2-Fluorobenzyl)-1H-pyrazolo[3,4-b]pyridin-3-yl]-5-(trifluoromethyl)-5,8-dihydropyrido[2,3-d]pyrimidin-7(6H)-one]",–,0.3 µM
"O=C1Nc2nc(-c3nn(Cc4ccccc4F)c4ncccc34)ncc2C1=O [Example 16, 2-[1-(2-Fluorobenzyl)-1H-pyrazolo[3,4-b]pyridin-3-yl]-5H-pyrrolo[2,3-d]pyrimidine-5,6(7H)-dione]",–,1.0 µM
"CC1(O)C(=O)Nc2nc(-c3nn(Cc4ccccc4F)c4ncccc34)ncc21 (stereo not shown) [Example 17, 2-[1-(2-Fluorobenzyl)-1H-pyrazolo[3,4-b]pyridin-3-yl]-5-hydroxy-5-methyl-5,7-dihydro-6H-pyrrolo[2,3-d]pyrimidin-6-one]",13 nM,0.1 µM
"CC1(C)C(=O)Nc2nc(-c3nn(Cc4ccc(F)cc4F)c4ncc(F)cc34)nnc21 [Example 21, 3-[1-(2,4-Difluorobenzyl)-5-fluoro-1H-pyrazolo[3,4-b]pyridin-3-yl]-7,7-dimethyl-5,7-dihydro-6H-pyrrolo[2,3-e][1,2,4]triazin-6-one]",–,0.1 µM
"O=C1Nc2nc(-c3nn(Cc4ccccc4F)c4ncccc34)ncc2C1(O)c1ccccc1 (stereo not shown) [Example 22, 2-[1-(2-Fluorobenzyl)-1H-pyrazolo[3,4-b]pyridin-3-yl]-5-hydroxy-5-phenyl-5,7-dihydro-6H-pyrrolo[2,3-d]pyrimidin-6-one]",–,0.03 µM
"O=C(O)CC1(O)C(=O)Nc2nc(-c3nn(Cc4ccccc4F)c4ncccc34)ncc21 (stereo not shown) [Example 25, {2-[1-(2-Fluorobenzyl)-1H-pyrazolo[3,4-b]pyridin-3-yl]-5-hydroxy-6-oxo-6,7-dihydro-5H-pyrrolo[2,3-d]pyrimidin-5-yl}acetic acid]",–,1.0 µM
"CC1(C)C(=O)Nc2nc(-c3nn(Cc4c(F)ccc(F)c4F)c4ncc(F)cc34)nnc21 [Example 29, 3-[5-Fluoro-1-(2,3,6-trifluorobenzyl)-1H-pyrazolo[3,4-b]pyridin-3-yl]-7,7-dimethyl-5,7-dihydro-6H-pyrrolo[2,3-e][1,2,4]triazin-6-one]",–,0.1 µM
"COC(=O)C(C)(C)c1nnc(-c2nn(Cc3ccc(F)cc3F)c3ncccc23)nc1O [Example 77A, Methyl 2-{3-[1-(2,4-difluorobenzyl)-1H-pyrazolo[3,4-b]pyridin-3-yl]-5-hydroxy-1,2,4-triazin-6-yl}-2-methylpropanoate]",–,1.0 µM
"COC(=O)C(C)(C)c1nnc(-c2nn(Cc3c(F)ccc(F)c3F)c3ncc(F)cc23)nc1O [Example 82A, Methyl 2-{3-[5-fluoro-1-(2,3,6-trifluorobenzyl)-1H-pyrazolo[3,4-b]pyridin-3-yl]-5-hydroxy-1,2,4-triazin-6-yl}-2-methylpropanoate]",–,0.3 µM
